{"source": "paper PMC13415951", "about": "(Journal of Experimental Botany, 2026)", "key": {"HvUGT13248 [1]": {"target": "T1, HvUGT13248 (Hordeum vulgare subsp. vulgare, UniProt M0Y4P1)", "T1 sequence (M0Y4P1 1-475)": "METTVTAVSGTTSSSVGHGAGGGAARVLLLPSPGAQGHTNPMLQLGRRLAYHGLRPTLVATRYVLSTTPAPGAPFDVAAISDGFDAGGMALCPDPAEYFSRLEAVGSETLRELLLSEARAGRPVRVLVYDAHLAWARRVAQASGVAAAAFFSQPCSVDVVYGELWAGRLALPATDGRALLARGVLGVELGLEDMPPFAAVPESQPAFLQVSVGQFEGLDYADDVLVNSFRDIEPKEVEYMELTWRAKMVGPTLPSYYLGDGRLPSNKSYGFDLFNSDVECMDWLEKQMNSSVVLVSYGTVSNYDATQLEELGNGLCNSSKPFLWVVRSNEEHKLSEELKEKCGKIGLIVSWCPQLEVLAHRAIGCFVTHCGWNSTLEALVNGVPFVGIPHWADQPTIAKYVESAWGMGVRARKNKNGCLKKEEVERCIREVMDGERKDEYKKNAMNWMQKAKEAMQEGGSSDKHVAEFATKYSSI"}, "wheat coleoptile tissue": {"tested_on": "wheat coleoptile tissue", "design": "method as in Wang and Miller, 1988", "settings": "ref Wang and Miller, 1988, cited from earlier work"}, "BdUGT5g03300": {"target": "T2, BdUGT5g03300 (Brachypodium distachyon, UniProt I1IW79)", "T2 sequence (I1IW79 1-469)": "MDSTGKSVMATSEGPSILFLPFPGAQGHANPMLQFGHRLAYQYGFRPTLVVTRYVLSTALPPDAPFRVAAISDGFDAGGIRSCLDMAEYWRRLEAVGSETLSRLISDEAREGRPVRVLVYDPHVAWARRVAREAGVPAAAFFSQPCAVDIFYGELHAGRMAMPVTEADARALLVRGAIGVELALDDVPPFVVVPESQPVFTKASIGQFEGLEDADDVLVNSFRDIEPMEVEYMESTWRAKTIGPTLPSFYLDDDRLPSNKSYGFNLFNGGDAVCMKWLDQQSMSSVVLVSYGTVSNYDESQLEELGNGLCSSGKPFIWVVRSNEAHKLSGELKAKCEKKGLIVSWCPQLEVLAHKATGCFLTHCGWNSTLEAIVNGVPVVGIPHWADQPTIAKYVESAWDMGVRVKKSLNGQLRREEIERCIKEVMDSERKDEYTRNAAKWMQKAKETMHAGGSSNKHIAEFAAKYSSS", "assay_type": "biochemical"}, "OsUGT79 Q202A [2]": {"target": "T3, OsUGT79 Q202A (Oryza sativa subsp. japonica, UniProt Q7XT97, Q202A)", "T3 sequence (Q7XT97 1-466 Q202A)": "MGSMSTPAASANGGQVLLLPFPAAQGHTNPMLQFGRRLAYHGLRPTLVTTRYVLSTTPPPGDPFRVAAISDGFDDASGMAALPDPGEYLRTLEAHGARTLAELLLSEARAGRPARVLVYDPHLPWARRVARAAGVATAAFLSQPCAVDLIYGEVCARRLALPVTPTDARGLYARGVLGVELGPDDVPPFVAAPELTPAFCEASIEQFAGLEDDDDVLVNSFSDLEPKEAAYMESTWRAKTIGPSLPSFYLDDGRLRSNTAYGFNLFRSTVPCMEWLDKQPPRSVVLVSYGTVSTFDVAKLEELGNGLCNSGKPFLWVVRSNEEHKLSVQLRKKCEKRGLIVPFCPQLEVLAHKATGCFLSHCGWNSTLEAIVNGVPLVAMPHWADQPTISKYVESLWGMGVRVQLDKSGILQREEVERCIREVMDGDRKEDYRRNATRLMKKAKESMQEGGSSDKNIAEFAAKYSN", "test": "biochemical", "assay_type": "biochemical"}, "OsUGT79 Q202A [3]": {"target": "T3, OsUGT79 Q202A", "assay_type": "biochemical"}, "OsUGT79 [4]": {"target": "T4, OsUGT79 (Oryza sativa subsp. japonica, UniProt Q7XT97)", "T4 construct": "made in house; host or cells: E. coli", "T4 sequence (Q7XT97 1-466)": "T3 sequence (Q7XT97 1-466 Q202A) with A202Q", "test": "biochemical", "assay_type": "biochemical"}, "piglets": {"tested_on": "piglets", "design": "method as in Rotter et al., 1992", "settings": "ref Rotter et al., 1992; cited from earlier work"}, "OsUGT79 [5]": {"target": "T4, OsUGT79", "test": "biochemical", "assay_type": "biochemical", "remark": "listed apart in the source"}, "animal cells": {"tested_on": "animal cells", "design": "method as in Gruber-Dorninger et al., 2017", "settings": "in vitro assays; ref Gruber-Dorninger et al., 2017; cited from earlier work"}, "[6]": {"tested_on": "marine and terrestrial (human pathogenic) fungi", "design": "method as in Strongman et al., 1987", "settings": "ref Strongman et al., 1987; cited from earlier work"}, "[7]": {"tested_on": "wheat cultivar Apogee seedlings", "design": "species or system Triticum aestivum", "settings": "in vivo"}, "HvUGT13248 [8]": {"target": "T1, HvUGT13248", "test": "biochemical", "settings": "read-out: Glucosylation rate of DON, percentage of the control"}, "[9]": {"settings": "read-out: Glucosylation rate of DON, percentage of the control"}}, "note": "Numbering of substitutions follows the chain as printed."}
{"smiles": "CC1(C)CCC[C@]2(C)[C@@H]3[C@H]1[C@@H](O)[C@@]2(C)C[C@H]3O", "note": "[CUL, culmorin]", "values": [{"measurement": "Specific activity (glucoside formation)", "setting": "HvUGT13248 [1]", "value": "6.94 ± 0.52", "unit": "nmol/min/mg"}, {"measurement": "Phytotoxicity on wheat by itself", "setting": "wheat coleoptile tissue; 10 µM CUL (∼3 mg l^−1)", "value": "no phytotoxicity"}, {"measurement": "Phytotoxicity on wheat coleoptile tissue", "setting": "wheat coleoptile tissue; 1000 µM CUL", "value": "phytotoxic effect"}, {"measurement": "Increase of apparent KM with DON", "setting": "BdUGT5g03300", "value": "~50", "unit": "fold"}, {"measurement": "K ic of CUL (competitive inhibition, DON as variable substrate)", "setting": "BdUGT5g03300", "value": "low µM range"}, {"measurement": "K iu of CUL (uncompetitive inhibition, UDP-glucose as variable substrate)", "setting": "BdUGT5g03300", "value": 1.4, "unit": "µM"}, {"measurement": "Ki", "setting": "BdUGT5g03300; read-out: K ic of CUL (competitive inhibition, DON as variable substrate)", "value": "< 1", "unit": "µM"}, {"measurement": "Kd", "setting": "BdUGT5g03300; read-out: KD of CUL at the acceptor binding site (implied by kinetics)", "value": "~1", "unit": "µM"}, {"measurement": "K iu of CUL (uncompetitive inhibition, DON as variable substrate)", "setting": "OsUGT79 Q202A [2]", "value": 56, "unit": "µM"}, {"measurement": "Ki", "setting": "OsUGT79 Q202A [2]", "value": 16, "unit": "µM"}, {"measurement": "Specific activity (glucoside formation)", "setting": "OsUGT79 Q202A [3]", "value": "2.23 ± 0.08", "unit": "nmol/min/mg"}, {"measurement": "CUL glucosylation rate compared with DON", "setting": "OsUGT79 [4]", "value": "1–2%"}, {"measurement": "Specific activity (glucoside formation)", "setting": "OsUGT79 [4]", "value": "1.85 ± 0.05", "unit": "nmol/min/mg"}, {"measurement": "remaining activity at 25 µM", "setting": "OsUGT79 [4]; [9]", "value": "64 ± 3", "unit": "%"}, {"measurement": "remaining activity at 125 µM", "setting": "OsUGT79 [4]; [9]", "value": "33 ± 4", "unit": "%"}, {"measurement": "Effect on growth of piglets", "setting": "piglets", "value": "no negative effects"}, {"measurement": "K iu of CUL (uncompetitive inhibition, DON as variable substrate)", "setting": "OsUGT79 [5]", "value": 208, "unit": "µM"}, {"measurement": "K iu of CUL (uncompetitive inhibition, UDP-glucose as variable substrate)", "setting": "OsUGT79 [5]", "value": 124, "unit": "µM"}, {"measurement": "Ki", "setting": "OsUGT79 [5]", "value": 146, "unit": "µM"}, {"measurement": "Toxicity to animal cells", "setting": "animal cells", "value": "low toxicity"}, {"measurement": "Anti-fungal activity", "setting": "[6]", "value": "Weak anti-fungal activity"}, {"measurement": "Effect of CUL applied together with DON on root length", "setting": "[7]", "value": "significantly increased the degree of reduction of root length"}, {"measurement": "Effect on primary and total root length", "setting": "[7]", "value": "did not cause a significant change"}, {"measurement": "remaining activity at 25 µM", "setting": "HvUGT13248 [8]", "value": "59 ± 6", "unit": "%"}, {"measurement": "remaining activity at 125 µM", "setting": "HvUGT13248 [8]", "value": 13, "unit": "%"}]}
